Measured values reported in US20120034613A1, “Apparatus and Method for Testing Relationships Between Gene Expression and Physical Appearance of Skin” (NSE Products, Inc., priority 2010, published 2012).

System: EpidermFT™ Skin Model (EFT-400) full thickness skin cultures
Assay: Affymetrix GeneChip HG U133 Plus 2.0 microarray global gene expression, agent-exposed vs untreated skin cultures
Assay type: cell-based, human
Conditions: Salicin 0.5% vs Untreated Control, 24 hr treatment

OCc1ccccc1O[C@@H]1O[C@H](CO)[C@@H](O)[C@H](O)[C@H]1O [Salicin, 2-(Hydroxymethyl)phenyl β-D-glucospyranoside]
up: Direction ABHD2 (221815_at) | Direction ABHD2 (225337_at) | Direction ADAMTS5 (235368_at) | Direction ADAMTS6 (1570351_at) | Direction ADCYAP1 (230237_at) | Direction AHI1 (220841_s_at) | Direction AHI1 (221569_at) | Direction AKR1C1 (1562102_at) | Direction AKT3 (212607_at) | Direction AKT3 (212609_s_at) | Direction AKT3 (222880_at) | Direction AKT3 (224229_s_at) | Direction ALG9 (228817_at) | Direction ANKRD28 (213035_at) | Direction ANKRD28 (229307_at) | Direction ARMC8 (1555281_x_at) | Direction ARNT2 (202986_at) | Direction ATF3 (1554980_a_at) | Direction ATP2A3 (207522_s_at) | Direction BAG2 (209406_at) | Direction BCL2L11 (1558143_a_at) | Direction BNC2 (220272_at) | Direction BNC2 (235723_at) | Direction C1GALT1C1 (238989_at) | Direction C1orf67 /// DNAH14 (242283_at) | Direction C13orf33 (227058_at) | Direction CABLES1 (225532_at) | Direction CARD16 (1552701_a_at) | Direction CCR1 (205098_at) | Direction CDCP1 (1554110_at) | Direction CDR2 (209501_at) | Direction CHST2 (203921_at) | Direction CLGN (205830_at) | Direction CNOT3 (203239_s_at) | Direction CPM (241765_at) | Direction CPM (243403_x_at) | Direction CREM (207630_s_at) | Direction CUL4B (202213_s_at) | Direction CXCL1 (204470_at) | Direction CYP7B1 (207386_at) | Direction CYR61 (210764_s_at) | Direction DENND3 (212975_at) | Direction DENND5B (228551_at) | Direction DGKI (206806_at) | Direction DNAJB9 (202842_s_at) | Direction DNAJB9 (1554462_a_at) | Direction DNAJC10 (221781_s_at) | Direction DNAJC10 (221782_at) | Direction DOCK4 (205003_at) | Direction DOCK5 (230206_at) | Direction DOCK5 (230263_s_at) | Direction DOK6 (236290_at) | Direction DSEL (232825_s_at) | Direction DUSP4 (204015_s_at) | Direction DZIP1 (204557_s_at) | Direction EIF2AK3 (218696_at) | Direction ELL2 (214446_at) | Direction ELTD1 (219134_at) | Direction ENPP1 (205066_s_at) | Direction ENTPD7 (220153_at) | Direction EPS8 (202609_at) | Direction EREG (205767_at) | Direction ERO1LB (220012_at) | Direction FADS1 (208963_x_at) | Direction FADS1 (208964_s_at) | Direction FAM20A (226804_at) | Direction FAM107B (223058_at) | Direction FAM107B (223059_s_at) | Direction FAR2 (220615_s_at) | Direction FAT4 (219427_at) | Direction FEM1B (212374_at) | Direction FGF7 (1555103_s_at) | Direction FGF7 /// KGFLP1 /// KGFLP2 (1554741_s_at) | Direction FHOD3 (218980_at) | Direction FKBP11 (219117_s_at) | Direction FKBP11 (219118_at) | Direction FMN2 (1555471_a_at) | Direction FN1 (214701_s_at) | Direction FN1 (214702_at) | Direction FOXJ3 (217310_s_at) | Direction FPR1 (205119_s_at) | Direction GAS1 (204457_s_at) | Direction GCLM (203925_at) | Direction GCLM (236140_at) | Direction GEM (204472_at) | Direction GFPT1 (226886_at) | Direction GFPT2 (205100_at) | Direction GLIPR1 (204222_s_at) | Direction GRAMD1A (224807_at) | Direction GRAMD1B (212906_at) | Direction GUCY1A3 (221942_s_at) | Direction GUCY1A3 (229530_at) | Direction HERC3 (1554290_at) | Direction HEY1 (44783_s_at) | Direction HIST1H2AB /// HIST1H2AE (214469_at) | Direction HIST1H2AD /// HIST1H3A /// HIST1H3B /// HIST1H3C /// HIST1H3D /// HIST1H3E /// HIST1H3F /// HIST1H3G /// HIST1H3H /// HIST1H3I /// HIST1H3J (214472_at) | Direction HIST2H2AA3 /// HIST2H2AA4 (214290_s_at) | Direction HK2 (222305_at) | Direction HOXB2 (205453_at) | Direction HSD17B2 (204818_at) | Direction HSPA13 (202557_at) | Direction ID2 /// ID2B (213931_at) | Direction IGFBP5 (211958_at) | Direction ING1 (209808_x_at) | Direction IRAK2 (231779_at) | Direction IRAK3 (220034_at) | Direction ITPRIP (225582_at) | Direction JHDM1D (225142_at) | Direction KCNA3 (207237_at) | Direction KCNE4 (222379_at) | Direction KCNE4 (1552508_at) | Direction KCNJ8 (205303_at) | Direction KCNJ8 (205304_s_at) | Direction KLF15 (231015_at) | Direction KLHL29 (229310_at) | Direction LCP1 (208885_at) | Direction LOC285628 (232504_at) | Direction LOC440028 (1562606_a_at) | Direction LOC729222 /// PPFIBP1 (214375_at) | Direction LOC100128821 /// ZEB2 (235593_at) | Direction LOC100132244 (229438_at) | Direction LPAR1 (204036_at) | Direction LPAR1 (204037_at) | Direction LPAR1 (204038_s_at) | Direction LPPR4 (213496_at) | Direction LRCH2 (227688_at) | Direction LRRK2 (229584_at) | Direction MAGEA4 (214254_at) | Direction MAP3K4 (216199_s_at) | Direction MAP3K5 (203836_s_at) | Direction MAP9 (220145_at) | Direction MASP1 (232224_at) | Direction MASP1 (235770_at) | Direction MESDC1 (223264_at) | Direction MGST1 (239001_at) | Direction MMD (203414_at) | Direction MTHFD2L (220346_at) | Direction MYO3B (1552578_a_at) | Direction NAMPT (217738_at) | Direction NEGR1 (1553194_at) | Direction NEXN (226103_at) | Direction NFKB2 (207535_s_at) | Direction NFKBIZ (223217_s_at) | Direction NOVA1 (205794_s_at) | Direction NR4A1 (202340_x_at) | Direction NRP2 (228699_at) | Direction OLAH (222945_x_at) | Direction PAPPA (201981_at) | Direction PAPPA (224940_s_at) | Direction PAPPA (224941_at) | Direction PAPPA (228128_x_at) | Direction PAPPA (1559400_s_at) | Direction PCDH7 (210941_at) | Direction PCSK1 (205825_at) | Direction PDE4D (211840_s_at) | Direction PEG10 (212092_at) | Direction PF4 (206390_x_at) | Direction PGM2L1 (229256_at) | Direction PHLDA1 (217996_at) | Direction PHTF1 (215285_s_at) | Direction PI15 (229947_at) | Direction PID1 (219093_at) | Direction PID1 (237867_s_at) | Direction PISD (202392_s_at) | Direction PITPNC1 (238649_at) | Direction PLAUR (211924_s_at) | Direction PLEKHA3 (223370_at) | Direction PTGER4 (204897_at) | Direction PTGES (207388_s_at) | Direction PTGES (210367_s_at) | Direction PTGS1 (205128_x_at) | Direction PTGS1 (215813_s_at) | Direction PTHLH (206300_s_at) | Direction PTHLH (211756_at) | Direction PTPRG (204944_at) | Direction QKI (228540_at) | Direction RAB3B (205924_at) | Direction RAB3B (227123_at) | Direction RAB23 (220955_x_at) | Direction RABGGTB (209180_at) | Direction RABGGTB (213704_at) | Direction RAI14 (202052_s_at) | Direction RASSF8 (235996_at) | Direction RGS3 (203823_at) | Direction RGS5 (209070_s_at) | Direction RGS12 (242079_at) | Direction RHOQ (212122_at) | Direction SEC24A (212902_at) | Direction SEMA3A (206805_at) | Direction SETDB2 (235339_at) | Direction SGK1 (201739_at) | Direction SH3RF3 (228461_at) | Direction SHOX (207570_at) | Direction SLC6A15 (232263_at) | Direction SLC11A2 (237106_at) | Direction SLC20A1 (230494_at) | Direction SLC43A3 (210692_s_at) | Direction SLFN11 (226743_at) | Direction SLIT2 (209897_s_at) | Direction SNHG12 (223774_at) | Direction SOCS2 (203373_at) | Direction SPON1 (209437_s_at) | Direction SPON1 (213993_at) | Direction SQSTM1 (213112_s_at) | Direction ST3GAL1 (208322_s_at) | Direction ST3GAL1 (225033_at) | Direction STK17B (205214_at) | Direction SULF1 (212344_at) | Direction TAF1A (206613_s_at) | Direction TAGLN (205547_s_at) | Direction TBC1D1 (212350_at) | Direction TBC1D1 (227945_at) | Direction TGM2 (201042_at) | Direction THBS1 (201108_s_at) | Direction THBS1 (239336_at) | Direction THRAP3 (242163_at) | Direction TMEM38B (222735_at) | Direction TMEM38B (222736_s_at) | Direction TMEM39A (218615_s_at) | Direction TMEM39A (222690_s_at) | Direction TMTC1 (226322_at) | Direction TMTC1 (226931_at) | Direction TNC (216005_at) | Direction TNFAIP6 (206026_s_at) | Direction TNIP3 (220655_at) | Direction TRPA1 (217590_s_at) | Direction TRPC4 (224220_x_at) | Direction UBE2B (239163_at)
